# According to patent US9579325B2, “Modulators of TNF-α signaling” (Genzyme Corporation, priority 2000, dated 2017):
# What was measured:
# [1] = tested on: L929 cells; test: TNF High Throughput Screen (TNF-α driven apoptosis assay); type: cell-based, mouse; conditions: Mus musculus, human TNF-α + actinomycin D, read-out: TNFα IC50
# Summary of the method: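 Mouse L929 cells were pretreated with compound for 2 hours, then given human TNF-α plus actinomycin D (40 μg/ml final) overnight. Surviving cells were stained with crystal violet, solubilised in methanol and read at 595 nm. Values are % inhibition at 1 μM (0 = TNF alone, 100 = no TNF) or IC50 from sigmoidal fits of dilution series.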
# [2] = tested on: C57/BL mouse; test: Sepsis model: murine LPS-d-galactosamine model; type: in vivo; conditions: 200 mg/kg intraperitoneally one hour before induction; prevention of mortality over three days
# Protocol: Sepsis was induced in the C57/BL mouse by the intravenous injection of 20 ng of lipopolysaccharide/animal plus 20 mgs d-galactosamine/animal. Inhibition was measured as the prevention of mortality over a three day period. Compounds were administered intraperitoneally in 10% cremophore/10% ethanol/80% normal saline one hour before induction.
# [3] = tested on: male rats; test: Inflammatory Bowel Disease model: rat DNBS distal colitis; type: in vivo; conditions: 100 mg/kg orally, 7 doses
# Protocol: Groups of three male rats weighing 150+/−10 g and fasted for 24 hours were used. Distal colitis was induced by intracolonic instillation of 0.5 ml/rat DNBS (2,4-dinitrobenzene sulfonic acid, 60 mg/ml in ethanol 30%) after which air (2 ml) was gently injected through the cannula to ensure that the solution remains in the colon. A test compound was administered orally 24 and 2 hours before DNBS-instillation and then daily for 5 days in a total of 7 doses. The animals were sacrificed 24 hours after the final dose of test compound administration and each colon was removed and weighed.
# [4] = tested on: Normal human dermal fibroblasts; test: TNF-α induced apoptosis in primary human fibroblasts; type: cell-based; conditions: for OD 595 nm: 2 ng/ml TNF-α 24 hours, crystal violet
# Source text: Description of Table V: The results shown in Table V were obtained using the TNF-α assays performed as described in the protocols entitled “Method for TNF High Throughput Screen” and “Method for VCAM High Throughput Screen”, which are detailed below. These assays measure a cellular response to TNF-α stimulation, and the data published in the table are expressed as percentage inhibitions. Percentage inhibition is computed on a scale of 0 to 100% where 0 percent inhibition means the compound has no effect in the assay (the response is indistinguishable from TNF-α treatment alone), and 100% inhibition means that when the compound is present at the stated concentration, the response in the assay is the same as if TNF-α were not added. These two assays measure two different outcomes of TNF-α treatment, cell death and Vascular Cell Adhesion Molecule (VCAM) expression, and capture two of TNF-α's many biological effects. TNF-α induced apoptosis is a mechanism by which TNF-α production during immune/inflammatory responses can lead to direct cellular and tissue damage. TNF-α VCAM expression in endothelial cells is a response that allows leukocytes to leave the blood and enter a site of immune/inflammatory response. Both of these activities could lead to pathology in immune/inflammatory diseases. In the first column of the table, the percentage inhibition of the TNF-α driven apoptosis assay when the compounds are tested at 1 μM concentration is presented. The second column in the table lists the IC50 for the compound, a standard measure using a dilution series in the assay, and fitting a sigmoidal curve to the resulting dose-response curve. The IC50 is the concentration (derived analytically from the sigmoidal function) at which the compound would inhibit 50% of the response in the assay. The third and fourth column list the corresponding analysis for the TNF-α driven VCAM assay. In Table VI, data corresponding to the data in column 1 of Table V is shown, with human cells replacing the mouse cells used in the high throughput screen. […] As a consequence, the compounds will have use in treating more than one TNF-α mediated condition, and may be selected according to the manner in which the condition manifests. This corresponds to the use of these compounds in the treatment of human disease.
# Normal human dermal fibroblasts were seeded into 96-well plates at 3×10^4 cells/well. Cells were pretreated for 2 hours with […] Actinomycin D and either Compound 44 or DMSO as a vehicle control. Cells were then exposed to 2 ng/ml TNF-α for 24 hours and stained with crystal violet/ethanol. Crystal violet was solubilized with methanol and absorbance at 595 nm was read on a microtiter plate reader.
structure (smiles),measurement,setting,value
N#Cc1cccc(C(C(=O)NCC(c2ccccc2)c2ccccc2)N(CCc2c[nH]cn2)C(=O)c2ccccc2C(=O)c2ccccc2)c1 (stereo not drawn) [Compound 44],IC50,[1],410 nM
same,Sepsis: Murine LPS-d-galactosamine model % inhibition,[2],33 +/− 1 @ 200%
same,Inflammatory Bowel Disease: Rat DNBS model % inhibition of colonic weight gain,[3],44 +/− 8 @ 100 mg/kg %
same,% Rescue,[4]; 2 μM compound,18.4%
same,OD 595 nm,[4]; 2 μM compound,0.109
same,% Rescue,[4]; 4 μM compound,57.1%
same,OD 595 nm,[4]; 4 μM compound,0.147
same,% Rescue,[4]; 8 μM compound,109.2%
same,OD 595 nm,[4]; 8 μM compound,0.198
